# US20170014417A1, “PHARMACEUTICAL ADMINISTRATION SYSTEM FOR THE TRANSDERMAL APPLICATION OF VARDENAFIL” (LIPP LIFE SCIENCES LLC, priority 2015, published 2017)
# Like-named read-outs stand apart in the source and are kept apart here.
# What was measured:
# [1] = in vitro-permeation test through Heat Separated Human Epidermis (HSHE), Hanson Vertical Diffusion Cells; assay type: in vitro ADME; conditions: Formulation 3
# Method: In a 10 mL flask with a stopper, 100 mg of vardenafil (base; from LGM Pharma) and 400 mg of isopropylmyristate were mixed with 9.5 g of 2-propanol/water (70% v/v) and shaken for 10 minutes at ambient temperature to obtain the formulation below. The resulting crystal free formulation was subjected to an in vitro-permeation test through Heat Separated Human Epidermis (HSHE), which is highly predictive for in vivo-transdermal flux rates.
# Permeation experiments were conducted in duplicate (using 2 cells) following a Standard Operating Procedure for using Hanson Vertical Diffusion Cells (7 mL) mounted with Heat Separated Human Epidermis, an in vitro-experiment with high predictability for transdermal in vivo-fluxes. […]
# 200 mg of the formulation were applied on each Heat Separated Human Epidermis. […] Samples were withdrawn at predetermined time intervals (see Tables 1 and 2 below) and subjected to HPLC quantification of vardenafil (V).
# Permeation experiments were conducted following a Standard Operating Procedure for using Hanson Vertical Diffusion Cells (7 mL) mounted with Heat Separated Human Epidermis, an in vitro-experiment with high predictability for transdermal in vivo-fluxes. […] Samples were withdrawn at predetermined time intervals (see Table 3 below) and subjected to HPLC quantification of vardenafil (V). […]
# [2] = cited from earlier work
# [3] = cited from earlier work; remark: listed apart in the source
# [4] = Calculation of required transdermal flux rates for the once daily treatment of erectile dysfunction (ED); conditions: human
smiles,measurement,setting,value
CCCc1nc(C)c2c(=O)[nH]c(-c3cc(S(=O)(=O)N4CCN(CC)CC4)ccc3OCC)nn12 [vardenafil],transdermal flux rate achieved (formulation),[1],27 μg/cm^2 μg/cm^2 over 24 h
same,plasma half-life,[2]; after oral administration,approximately 3 h
same,median time to reach maximum concentration in plasma,"[2]; oral administration, fasted state (Staxyn prescribing information)",1.5 h
same,absolute bioavailability,[2]; upon oral dosing in man,approximately 15%
same,log P,[3]; Table 12,1.4
same,log P,[3],1.4
same,systemically available required dose for once daily treatment of ED (calculated),[4],0.75 mg
same,calculated transdermal flux rates required to deliver systemic doses for treatment of ED upon application on 200 cm^2,[4]; 24 h,3.8 μg/cm^2 μg/cm^2 over 24 h
CCCc1nn(C)c2c(=O)[nH]c(-c3cc(S(=O)(=O)N4CCN(C)CC4)ccc3OCC)nc12 [sildenafil],log P,[3]; Table 12,1.9
C[C@]12CC[C@H]3[C@@H](CCC4=CC(=O)CC[C@@]43C)[C@@H]1CC[C@@H]2O [testosterone],log P,[3],3.4
CN1CC(=O)N2[C@H](c3ccc4c(c3)OCO4)c3[nH]c4ccccc4c3C[C@@H]2C1=O [tadalafil],log P,[3]; Table 12,1.7
